Assay results from PubChem BioAssay AID489006 (Sanford-Burnham Center for Chemical Genomics, 2010).
pIC50: −log10 of the molar value. Active and inactive are the calls of the source. How the calls were made is not given here.

What follows are compounds tested on Jurkat NF-kB reporter, luminescence (assay: NF-kB reporter inhibition in Jurkat cells, dose response, selectivity assay for B-cell receptor NF-kB inhibitor project, cell-based, luminescence (AID 489006)).

Question: Which IC50 does the source give for Cc1nn(-c2ccc(N3CCCCC3)nn2)c(C)c1CCC(=O)Nc1ccccc1F here?
Answer: 71.1 µM (inactive)

Question: With N=c1c2c(n(Cc3cccc(Cl)c3)c3c1CCC3)CCCC2 as the compound, how does the IC50 read?
Answer: 27.6 µM (inactive)

Question: Cc1ccc(/C=C2\SC(=S)N(CCCC(=O)NNC(=O)c3ccccc3O)C2=O)cc1 was tested. Which pIC50 did it give?
Answer: 6.05

Question: C=CCOc1ccc(/C=C2\SC(=S)N(CCC(=O)O)C2=O)cc1 was tested. Which pIC50 did it give?
Answer: > 6.80

Question: For C(=N\Nc1nc(Nc2ccccc2)nc(Nc2ccccc2)n1)/c1cccnc1, which IC50 is on record?
Answer: > 80 µM (inactive)

Question: With CN(C)c1cc[n+](Cc2c(Cl)cccc2Cl)cc1 as the compound, how does the IC50 read?
Answer: > 80 µM (inactive)

Question: With CC(C)(C)c1ccc(-c2noc(CCC(=O)Nc3cccnc3)n2)cc1 as the compound, how does the pIC50 read?
Answer: > 6.80

Question: With Cc1c(CC(=O)NCCCC(=O)O)c(=O)oc2cc3c(cc12)CCC(C)(C)O3 as the compound, how does the pIC50 read?
Answer: 5.38

Question: For O=C(NCCC1CCCCN1S(=O)(=O)c1ccc(Cl)cc1)C(=O)NCc1ccncc1 (stereo not drawn), which IC50 is on record?
Answer: > 80 µM (inactive)

Question: CC(C)(C)c1ccc(-c2noc(CCC(=O)NCc3ccco3)n2)cc1 was tested. Which pIC50 did it give?
Answer: 5.95

Question: Which IC50 does the source give for COc1ccc(-n2c(-c3ccc(Br)cc3)c[n+]3c2CCc2ccccc2-3)cc1 here?
Answer: 31.8 µM (inactive)

Question: How did the pIC50 turn out when COc1ccc(OCc2cccc(C(=O)NN)c2)cc1 was run?
Answer: 5.29

Question: CCC(CC)C(=O)Nc1ccc(Sc2ccc([N+](=O)[O-])cc2)cc1 was tested. Which pIC50 did it give?
Answer: 5.17

Question: How did the pIC50 turn out when CCc1ccc(-c2nnn(CCC(=O)OC)n2)cc1 was run?
Answer: 5.75

Question: Which IC50 does the source give for CCOC(=O)C(=CNc1cc(C)ccc1C)C(=O)OCC here?
Answer: > 80 µM (inactive)

Question: Which IC50 does the source give for Cn1c(=O)cc(Nc2ccccc2)c2c(=O)n(-c3ccccc3)c(=O)n(-c3ccccc3)c21 here?
Answer: 71.9 µM (inactive)

Question: COc1ccc(NC(=O)c2nnn(Cc3cccc(F)c3)c2N)c(OC)c1 was tested. Which IC50 did it give?
Answer: > 80 µM (inactive)

Question: With CCCNC(=O)c1ccc(N2CCC3(CC2)CC(c2cccc(Br)c2)=NO3)c(NC(=O)c2ccc(Cl)c([N+](=O)[O-])c2)c1 as the compound, how does the IC50 read?
Answer: > 80 µM (inactive)

Question: With Cc1ccc(C(=O)CSc2nnc(COc3ccccc3)o2)cc1 as the compound, how does the IC50 read?
Answer: > 80 µM (inactive)

Question: How did the IC50 turn out when CCc1ccc(/C=C2/SC(=S)N(CCC(=O)Nc3cccnc3)C2=O)cc1 was run?
Answer: > 80 µM (inactive)

Question: With CCC(C)[C@H](N)c1nnc(SCC(=O)c2ccc(Cl)cc2)o1 (stereo partly drawn) as the compound, how does the IC50 read?
Answer: 72.9 µM (inactive)

Question: How did the pIC50 turn out when Cc1c(CCC(=O)O)c(=O)oc2cc3oc4c(c3cc12)CCCC4 was run?
Answer: 5.13

Question: Which IC50 does the source give for Cn1c(=O)cc(OCC(=O)N2CCC3(CC2)OCCO3)c2ccccc21 here?
Answer: > 80 µM (inactive)

Question: Which IC50 does the source give for COc1ccc(NC(=O)c2cc(-c3ccccn3)nc3ccccc23)cc1S(=O)(=O)N(C)C here?
Answer: 26.6 µM (inactive)

Question: How did the pIC50 turn out when O=C(Nc1nc(-c2ccccc2)cs1)c1ccccc1NS(=O)(=O)c1ccc(F)cc1 was run?
Answer: 4.72

Question: CC1CCN(c2c(NCc3ccc(C(=O)N4c5ccccc5CC4C)cc3)c(=O)c2=O)CC1 (stereo not drawn) was tested. Which IC50 did it give?
Answer: > 80 µM (inactive)

Question: N#CC1=C(N)Oc2cc(Nc3ccccc3)ccc2C1c1ccncc1 (stereo not drawn) was tested. Which IC50 did it give?
Answer: 60.6 µM (inactive)

Question: With CC1=CC(C)(C)Nc2ccc(OC(=O)C(Cc3ccccc3)N3C(=O)c4ccccc4C3=O)cc21 (stereo not drawn) as the compound, how does the pIC50 read?
Answer: 5.14

Question: With COc1ccc(/C=C2/SC(=S)N(CCCC(=O)Nc3ccc(O)cc3)C2=O)cc1 as the compound, how does the IC50 read?
Answer: > 80 µM (inactive)

Question: With Cc1nc2cc(-c3ccccc3)nn2c(C)c1CCC(=O)NCc1ccco1 as the compound, how does the IC50 read?
Answer: > 80 µM (inactive)

Question: For CCN1C(=O)c2cccc3c(S(=O)(=O)Nc4ccccc4)ccc1c23, which IC50 is on record?
Answer: 48.9 µM (inactive)

Question: With CC(C)C(=O)Nc1ccc(NC(=O)c2ccc3c(c2)OCO3)cc1 as the compound, how does the IC50 read?
Answer: > 80 µM (inactive)

Question: With COc1ccc2nc(C)cc(Sc3nc4ccccc4s3)c2c1 as the compound, how does the pIC50 read?
Answer: 5.60

Question: Which IC50 does the source give for CCc1cccc(NC(=O)c2ccc(CNc3c(N4CCCC4)c(=O)c3=O)cc2)c1 here?
Answer: > 80 µM (inactive)

Question: COC(=O)[C@@]12OC[C@]34[C@H]([C@@H](O)[C@@H]1O)[C@@]1(C)C(=O)C(O[C@@H]5OC(CO)[C@@H](O)[C@@H](O)[C@@H]5O)=C[C@@H](C)[C@@H]1C[C@H]3OC(=O)[C@H](OC(=O)/C=C(\C)C(C)(C)OC(C)=O)[C@@H]24 (stereo partly drawn) was tested. Which pIC50 did it give?
Answer: 6.09

Question: With CCCCCOc1ccc(NC(=O)C(=O)NCCCn2ccnc2)cc1 as the compound, how does the IC50 read?
Answer: > 80 µM (inactive)

Question: How did the pIC50 turn out when Cc1nc2ccccn2c1C(=O)/C=C/c1cccc([N+](=O)[O-])c1 was run?
Answer: 5.34

Question: CCn1c(=O)cc(SCC(=O)N2CCN(C(=O)c3ccco3)CC2)c2ccccc21 was tested. Which IC50 did it give?
Answer: > 80 µM (inactive)

Question: With COc1ccc(-n2c(-c3ccc(Cl)cc3)c[n+]3c2CCc2ccccc2-3)cc1 as the compound, how does the IC50 read?
Answer: 28.6 µM (inactive)

Question: For COc1ccc(-c2ccc(OC)c([C@H]3[C@H]4C=CC[C@@H](C)[C@@H]4C(=O)N3Cc3ccccc3)c2)cc1C, which IC50 is on record?
Answer: > 80 µM (inactive)

Question: With O=C(c1cc2nc(-c3ccccc3)cc(-c3ccccc3)n2n1)N1CCN(C(=O)c2ccco2)CC1 as the compound, how does the IC50 read?
Answer: 31 µM (inactive)

Question: With O=C(Nc1nc2nc(-c3ccccc3)cc(-c3ccccc3)n2n1)c1ccco1 as the compound, how does the pIC50 read?
Answer: 4.92

Question: COc1ccc(-c2noc(CCCC(=O)O)n2)cc1 was tested. Which pIC50 did it give?
Answer: 5.85

Question: With CC(C)(O)/C=C/C(=O)[C@](C)(O)C1[C@H](O)C[C@@]2(C)C3CC=C4C(C[C@H](O)[C@@H](O)C4(C)C)[C@]3(C)C(=O)C[C@]12C (stereo partly drawn) as the compound, how does the IC50 read?
Answer: 31.3 µM (inactive)

Question: O=C(CCCN1C(=O)/C(=C/c2ccccc2Cl)SC1=S)NNC(=O)c1ccccc1Cl was tested. Which pIC50 did it give?
Answer: 5.75

Question: Which IC50 does the source give for COc1cc(OC)c(/C=N/NC(N)=S)cc1Br here?
Answer: > 80 µM (inactive)

Question: With NNC(=O)COc1ccc(-c2nccc(-c3ccc(F)cc3)n2)cc1 as the compound, how does the pIC50 read?
Answer: 5.75

Question: How did the IC50 turn out when COc1ccccc1/C=C1\SC(=S)N(CCC(=O)Nc2nnc(C)s2)C1=O was run?
Answer: > 80 µM (inactive)

Question: Cc1ccc(/C=C2/SC(=S)N(CCCC(=O)Nc3ccc(O)cc3)C2=O)cc1 was tested. Which pIC50 did it give?
Answer: 4.70

Question: Cc1cc(C)c(S(=O)(=O)NCc2ccncc2)c(C)c1 was tested. Which IC50 did it give?
Answer: > 80 µM (inactive)

Question: With CC(C)c1ccc(/C=C2\SC(=S)N(CCC(=O)N3CCCCC3CCO)C2=O)cc1 (stereo not drawn) as the compound, how does the pIC50 read?
Answer: 6.48

Question: COc1cc(-c2nc(C(=O)NCC3CCCO3)cc3c2[nH]c2ccccc23)cc(OC)c1OC (stereo not drawn) was tested. Which pIC50 did it give?
Answer: 4.74

Question: COc1ccc(/C=C2/SC(=S)N(CCCC(=O)Nc3cccc(O)c3)C2=O)cc1 was tested. Which IC50 did it give?
Answer: > 80 µM (inactive)

Question: O=C(CCCN1C(=O)/C(=C/c2ccccc2Cl)SC1=S)Nc1cccnc1 was tested. Which pIC50 did it give?
Answer: 5.18

Question: CC(C)c1[nH]nc2c1C(c1ccco1)C(C#N)=C(N)O2 (stereo not drawn) was tested. Which IC50 did it give?
Answer: 40 µM (inactive)

Question: For CC1CCN(C(=O)CCCOc2cc(=O)n(C)c3ccccc23)CC1, which IC50 is on record?
Answer: > 80 µM (inactive)

Question: For Cc1nc2cc(-c3cccc(F)c3)nn2c(C)c1CCC(=O)N1CCC2(CC1)OCCO2, which IC50 is on record?
Answer: 20.7 µM (inactive)

Question: With CCN(CC)CCCN=Cc1c(-c2ccccc2)[nH]n(-c2nc3ccccc3s2)c1=O as the compound, how does the pIC50 read?
Answer: 5.12

Question: With O=C(CCl)Nc1ccccc1Sc1ccccc1 as the compound, how does the pIC50 read?
Answer: 4.85

Question: How did the IC50 turn out when CC1CCC/C=C/C2CC(O)CC2C(O)/C=C/C(=O)O1 (stereo not drawn) was run?
Answer: > 80 µM (inactive)

Question: With CCn1c(=O)c2cc(C(=O)NC(C)C)sc2c2ccccc21 as the compound, how does the IC50 read?
Answer: > 80 µM (inactive)

Question: COc1ccc(-c2ccc(C(C)=O)cc2)cc1[C@H]1[C@H]2C=CC[C@@H](C)[C@@H]2C(=O)N1Cc1ccccc1 was tested. Which IC50 did it give?
Answer: > 80 µM (inactive)

Question: Which IC50 does the source give for O=C(C1CCC1)N1CCN(S(=O)(=O)c2ccc([N+](=O)[O-])cc2)CC1 here?
Answer: > 80 µM (inactive)

Question: With COC(=O)CSc1nnc(-c2sc3ccccc3c2Cl)o1 as the compound, how does the pIC50 read?
Answer: 5.46

Question: With COc1ccc(N(CC(=O)N2CCN(c3ccc(Cl)cc3)CC2)S(=O)(=O)c2c(C)n[nH]c2C)cc1 as the compound, how does the IC50 read?
Answer: > 80 µM (inactive)

Question: How did the IC50 turn out when Cn1c(=O)n(C)c2cc(NS(=O)(=O)c3ccccc3)ccc21 was run?
Answer: 51.8 µM (inactive)

Question: For Cc1nc2cc(-c3ccccc3)nn2c(C)c1CCC(=O)N1CCC2(CC1)OCCO2, which IC50 is on record?
Answer: > 80 µM (inactive)

Question: Cc1ccc(/C=C2\SC(=S)N(CCCC(=O)Nc3cc(C)on3)C2=O)cc1 was tested. Which pIC50 did it give?
Answer: 4.75
